One molecule from patent publication US20090274662A1, “Methods And Kits For The Treatment Of Inflammatory Bowel Disorder Conditions” (priority 2008, published 2009) can be followed below.

The conditions of the data set: male, human, in vivo. The text has this: The patient is prescribed a pharmaceutical composition to be taken twice each week. Each unit dose of the pharmaceutical composition comprises 7200 milligrams of delayed-release mesalamine.

Take `Nc1ccc(O)c(C(=O)O)c1` [delayed-release mesalamine, 5-amino-2-hydroxybenzoic acid]: the “amount of delayed-release mesalamine absorbed into the mucosa and colonic wall” value is “equivalent to that of 2400 milligrams mesalamine taken once-daily”.
